Experimental data reported in patent publication US4724233A, “Therapeutical application of phosphonylmethoxyalkyl adenines” (Stichting Rega VZW, priority 1985, dated 1988).
≈ marks a conversion by molar mass, not a printed value. Entries after “also recorded” stand apart in the source; their conditions may differ. Like-named read-outs stand apart in the source and are kept apart here.

Assays:
Vesicular stomatitis = test: microbe, parasite or virus in culture; assay type: cell-based; conditions: for MIC50: Table 3, HeLa, PRK cells; for EC50: read-out: MIC50
Herpes simplex 2 (G) = test: inhibition of cytopathic effect of herpes simplex 2 (G); assay type: cell-based, herpes simplex virus type 2; conditions: PRK cells; for EC50: Human alphaherpesvirus 2, PRK, read-out: MIC50
HSV-1 (strain) McIntyre = test: inhibition of cytopathic effect of HSV-1 strain McIntyre; assay type: cell-based, herpes simplex virus type 1; conditions: Table 4, HSV-1 McIntyre, PRK cells; for EC50: Human alphaherpesvirus 1, read-out: MIC50
PRK cells [1] = test: antimetabolic activity: incorporation of 3H-labeled precursors into primary rabbit kidney cells; conditions: for ID50 dUrd incorporation: (3H-1',2')dUrd; for ID50 Leu incorporation: (3H-4,5)Leu; for ID50 Urd incorporation: (3H-5)Urd; for ID50 dThd incorporation: (3H-methyl) dThd
Moloney sarcoma = test: inhibition of Moloney sarcoma virus; assay type: cell-based, Moloney mouse sarcoma virus; conditions: Table 3, MO cells; for EC50: Mus musculus, read-out: MIC50
HSV-2 (strain) 196 = test: inhibition of cytopathic effect of HSV-2 strain 196; assay type: cell-based, herpes simplex virus type 2; conditions: Table 4, HSV-2 196, PRK cells; for EC50: Human alphaherpesvirus 2, read-out: MIC50
Herpes simplex I (KOS) = test: inhibition of cytopathic effect of herpes simplex 1 (KOS); assay type: cell-based, herpes simplex virus type 1; conditions: PRK cells; for EC50: Human alphaherpesvirus 1, read-out: MIC50
vaccinia virus (VV) = assay type: cell-based; conditions: PRK cells, average of two determinations
Polio 1 = test: microbe, parasite or virus in culture; assay type: cell-based; conditions: for MIC50: Table 3, HeLa cells
Vaccinia = test: microbe, parasite or virus in culture; assay type: cell-based; conditions: for MIC50: Table 3, PRK cells; for EC50: Orthopoxvirus vaccinia, PRK, read-out: MIC50
Coxsackie B4 = test: inhibition of cytopathic effect of Coxsackie B4; assay type: cell-based; conditions: Table 3, Vero B, HeLa cells
Sindbis = test: inhibition of cytopathic effect of Sindbis; assay type: cell-based; conditions: Table 3, Vero B cells
PRK cells [2] = conditions: 72 h
HSV-1 (strain) F = test: inhibition of cytopathic effect of HSV-1 strain F; assay type: cell-based, herpes simplex virus type 1; conditions: Table 4, HSV-1 F, PRK cells; for EC50: Human alphaherpesvirus 1, read-out: MIC50
Measles = test: inhibition of cytopathic effect of measles; assay type: cell-based; conditions: Table 3, Vero Flow cells
Reovirus = test: inhibition of cytopathic effect of reovirus; assay type: cell-based; conditions: Table 3, Vero B cells
[3] = tested on: HSV-1 (strain) TK^- C1101; test: inhibition of cytopathic effect of HSV-1 TK- strain C1101; assay type: cell-based, herpes simplex virus type 1; conditions: for MIC50: Table 4, HSV-1 TK^- C1101, PRK cells; for EC50: Human alphaherpesvirus 1, PRK, read-out: MIC50
HSV-2 (strain) Lyons = test: inhibition of cytopathic effect of HSV-2 strain Lyons; assay type: cell-based, herpes simplex virus type 2; conditions: Table 4, HSV-2 Lyons, PRK cells; for EC50: Human alphaherpesvirus 2, read-out: MIC50
[4] = tested on: herpes simplex virus type 1 (HSV-1) (strain KOS); assay type: cell-based; conditions: PRK cells
Parainfluenza 3 = test: inhibition of cytopathic effect of parainfluenza 3; assay type: cell-based; conditions: Table 3, Vero B cells
[5] = cited from earlier work
CMV (strain) AD 169 = test: inhibition of CMV strain AD 169 in HEL cells; assay type: cell-based, cytomegalovirus; conditions: Human betaherpesvirus 5; Table 5; CMV AD 169, HEL cells; read-out: MIC50
TK^- herpes viruses = conditions: Prusoff et al.; cited from earlier work
[6] = tested on: HSV-1 (strain) TK^- B2006; test: inhibition of cytopathic effect of HSV-1 TK- strain B2006; assay type: cell-based, herpes simplex virus type 1; conditions: for EC50: Human alphaherpesvirus 1, PRK, read-out: MIC50
CMV (strain) Davis = test: inhibition of CMV strain Davis in HEL cells; assay type: cell-based, cytomegalovirus; conditions: Human betaherpesvirus 5, Table 5, read-out: MIC50
DNA-viruses = assay type: cell-based
VZV (strain) YS = test: microbe, parasite or virus in culture; assay type: cell-based, varicella-zoster virus; conditions: Human alphaherpesvirus 3, Table 5, HEL cells, read-out: MIC50
in vitro = conditions: rabbit, prk cells
[7] = antimetabolic activity: incorporation of 3H-labeled precursors into primary rabbit kidney cells; conditions: rabbit, prk cells
VZV (strain) OKa = test: microbe, parasite or virus in culture; assay type: cell-based, varicella-zoster virus; conditions: Human alphaherpesvirus 3, HEL, read-out: MIC50
VZV (strain) TK^- 07-1 = test: microbe, parasite or virus in culture; assay type: cell-based, varicella-zoster virus; conditions: Human alphaherpesvirus 3, HEL, read-out: MIC50
VZV (strain) TK^- YSR = test: microbe, parasite or virus in culture; assay type: cell-based, varicella-zoster virus; conditions: Human alphaherpesvirus 3, HEL, read-out: MIC50
[8] = 48 h, 10 μg/ml (value in parentheses)

## Nc1ncnc2c1ncn2CC1COP(=O)(O)CO1 (racemic) [No. 5, 2',3'-cyclic O-phosphonylmethyl ether of (RS)-9-(2,3-dihydroxypropyl)adenine]
Vesicular stomatitis
  MIC50: > 400 µg/mL
Herpes simplex 2 (G); Table 3
  MIC50: 30 µg/mL (≈ 105 µM)
HSV-1 (strain) McIntyre
  MIC50: 30 µg/mL (≈ 105 µM)
PRK cells [1]
  ID50 dUrd incorporation: ≥ 360 µg/mL
  ID50 Leu incorporation: > 400 µg/mL
  ID50 Urd incorporation: > 400 µg/mL
  ID50 dThd incorporation: ≥ 390 µg/mL
Moloney sarcoma
  MIC50: > 200 µg/mL
HSV-2 (strain) 196
  MIC50: 15 µg/mL (≈ 52.6 µM)
Herpes simplex I (KOS); Table 3
  MIC50: 30 µg/mL (≈ 105 µM)
Vaccinia virus (VV); 1 h, 100 μg/ml
  Titer of VV: 1.6 log10 PFU/ml
Vaccinia virus (VV); 24 h, 100 μg/ml
  Titer of VV: 1.8 log10 PFU/ml
Vaccinia virus (VV); [8]
  Titer of VV: < 1.3 log10 PFU/ml
Vaccinia virus (VV); 48 h, 100 μg/ml
  Titer of VV: < 1.3 log10 PFU/ml
Vaccinia virus (VV); 72 h, 100 μg/ml
  Titer of VV: 1.5 log10 PFU/ml
Polio 1
  MIC50: > 400 µg/mL
Vaccinia
  MIC50: 0.7 to 3.0 µg/mL
Coxsackie B4
  MIC50: > 400 µg/mL
Sindbis
  MIC50: > 400 µg/mL
PRK cells [2]
  MCC (minimal cytotoxic concentration): > 400 µg/mL
HSV-1 (strain) F
  MIC50: 30 µg/mL (≈ 105 µM)
Measles
  MIC50: > 100 µg/mL
Reovirus
  MIC50: > 200 µg/mL
[3]
  MIC50: 7 µg/mL (≈ 24.5 µM)
HSV-2 (strain) Lyons
  MIC50: 15 µg/mL (≈ 52.6 µM)
[4]; 24 h, 100 μg/ml
  Titer of HSV-1: < 1.3 log10 PFU/ml
[4]; [8]
  Titer of HSV-1: 6.04 log10 PFU/ml
[4]; 48 h, 100 μg/ml
  Titer of HSV-1: 2.8 log10 PFU/ml
Parainfluenza 3
  MIC50: > 400 µg/mL

## Nc1nc2c(ncn2COCCO)c(=O)[nH]1 [ACV, aclycovir, reference compound]
Vesicular stomatitis
  EC50: > 400 µg/mL
Herpes simplex 2 (G); Table 3
  EC50: 0.7 µg/mL (≈ 3.11 µM)
Herpes simplex 2 (G); Table 4, HSV-2 G
  EC50: 0.07 µg/mL (≈ 0.311 µM)
HSV-1 (strain) McIntyre
  EC50: 0.1 µg/mL (≈ 0.444 µM)
Moloney sarcoma
  EC50: 50 µg/mL (≈ 222 µM)
[5]
  solubility (in words): low solubility
HSV-2 (strain) 196
  EC50: 0.07 µg/mL (≈ 0.311 µM)
Herpes simplex I (KOS); Table 3
  EC50: 0.2 µg/mL (≈ 0.888 µM)
Vaccinia
  EC50: 70 µg/mL (≈ 311 µM)
CMV (strain) AD 169
  EC50: 30 µg/mL (≈ 133 µM)
TK^- herpes viruses
  activity against TK^- herpes viruses (in words): inactive
HSV-1 (strain) F
  EC50: 0.2 µg/mL (≈ 0.888 µM)
[6]
  EC50: 70 µg/mL (≈ 311 µM)
CMV (strain) Davis
  EC50: 20 µg/mL (≈ 88.8 µM)
[3]
  EC50: 20 µg/mL (≈ 88.8 µM)
HSV-2 (strain) Lyons
  EC50: 0.07 µg/mL (≈ 0.311 µM)

## Nc1ncnc2c1ncn2C[C@@H](CO)OCP(=O)(O)O [No. 4, (S)-9-(3-hydroxy-2-phosphonylmethoxypropyl)adenine]
Vesicular stomatitis
  EC50: > 400 µg/mL
DNA-viruses
  antiviral activity (in words): the most effective one; also recorded: best antiviral activity
VZV (strain) YS
  EC50: 0.004 µg/mL (≈ 0.0132 µM)
In vitro
  MCC at 72 h: ≥ 200 µg/mL
Herpes simplex 2 (G); Table 3
  EC50: 1 to 3 µg/mL (≈ 3.3 to 9.89 µM)
Herpes simplex 2 (G); Table 4, HSV-2 G
  EC50: 1 to 3 µg/mL (≈ 3.3 to 9.89 µM)
HSV-1 (strain) McIntyre
  EC50: 1 to 3 µg/mL (≈ 3.3 to 9.89 µM)
[7]; ID50 Leu incorporation, (3H-4,5)Leu
  IC50: > 400 µg/mL
[7]; ID50 Urd incorporation, (3H-5)Urd
  IC50: > 400 µg/mL
[7]; ID50 dThd incorporation, (3H-methyl) dThd
  IC50: 297 µg/mL (≈ 980 µM)
[7]; ID50 dUrd incorporation, (3H-1',2')dUrd
  IC50: 74 µg/mL (≈ 244 µM)
Moloney sarcoma
  EC50: 1 µg/mL (≈ 3.3 µM)
HSV-2 (strain) 196
  EC50: 1 to 3 µg/mL (≈ 3.3 to 9.89 µM)
Herpes simplex I (KOS); Table 3
  EC50: 1 µg/mL (≈ 3.3 µM)
Vaccinia virus (VV); [8]
  Titer of VV: < 1.3 log10 PFU/ml
Vaccinia virus (VV); 48 h, 100 μg/ml
  Titer of VV: < 1.3 log10 PFU/ml
Polio 1; HeLa, read-out: MIC50
  EC50: > 400 µg/mL
VZV (strain) OKa
  EC50: 0.004 µg/mL (≈ 0.0132 µM)
VZV (strain) TK^- 07-1
  EC50: 0.004 µg/mL (≈ 0.0132 µM)
Vaccinia
  EC50: 0.3 to 1.5 µg/mL (≈ 0.989 to 4.95 µM)
Coxsackie B4; Enterovirus B, B4, read-out: MIC50
  EC50: > 400 µg/mL
Sindbis; read-out: MIC50
  EC50: > 400 µg/mL
CMV (strain) AD 169
  EC50: 0.3 µg/mL (≈ 0.989 µM)
VZV (strain) TK^- YSR
  EC50: 0.004 µg/mL (≈ 0.0132 µM)
HSV-1 (strain) F
  EC50: 1 to 3 µg/mL (≈ 3.3 to 9.89 µM)
[6]
  EC50: 1 µg/mL (≈ 3.3 µM)
Measles; Measles morbillivirus, read-out: MIC50
  EC50: > 40 µg/mL
Reovirus; Reovirus sp., read-out: MIC50
  EC50: > 40 µg/mL
CMV (strain) Davis
  EC50: 0.3 µg/mL (≈ 0.989 µM)
[3]
  EC50: 1 µg/mL (≈ 3.3 µM)
HSV-2 (strain) Lyons
  EC50: 1 µg/mL (≈ 3.3 µM)
[4]; 24 h, 100 μg/ml
  Titer of HSV-1: < 1.3 log10 PFU/ml
[4]; [8]
  Titer of HSV-1: 4.3 log10 PFU/ml
[4]; 48 h, 100 μg/ml
  Titer of HSV-1: < 1.3 log10 PFU/ml
Parainfluenza 3; read-out: MIC50
  EC50: > 200 µg/mL

## (RS)-9-(2(3)hydroxy-3(2)-phosphonylmethoxypropyl)adenine [No. 1]
Vesicular stomatitis
  MIC50: > 400 µg/mL
Herpes simplex 2 (G); Table 3
  MIC50: 7 to 20 µg/mL
Herpes simplex 2 (G); Table 4, HSV-2 G
  MIC50: 7 to 20 µg/mL
HSV-1 (strain) McIntyre
  MIC50: 30 µg/mL
PRK cells [1]
  ID50 dUrd incorporation: 230 µg/mL
  ID50 Leu incorporation: > 400 µg/mL
  ID50 Urd incorporation: > 400 µg/mL
  ID50 dThd incorporation: 250 µg/mL
Moloney sarcoma
  MIC50: > 60 µg/mL
HSV-2 (strain) 196
  MIC50: 15 to 70 µg/mL
Herpes simplex I (KOS); Table 3
  MIC50: 20 to 30 µg/mL
Herpes simplex I (KOS); Table 4, HSV-1 KOS
  MIC50: 20 to 30 µg/mL
Vaccinia virus (VV); 1 h, 100 μg/ml
  Titer of VV: 1.7 log10 PFU/ml
Vaccinia virus (VV); 24 h, 100 μg/ml
  Titer of VV: 1.7 log10 PFU/ml
Vaccinia virus (VV); 48 h, 100 μg/ml
  Titer of VV: 1.2 log10 PFU/ml
Vaccinia virus (VV); 72 h, 100 μg/ml
  Titer of VV: 1.5 log10 PFU/ml
Polio 1
  MIC50: > 400 µg/mL
Vaccinia
  MIC50: 0.7 to 3.0 µg/mL
Coxsackie B4
  MIC50: > 400 µg/mL
Sindbis
  MIC50: > 400 µg/mL
PRK cells [2]
  MCC (minimal cytotoxic concentration): ≥ 100 µg/mL
HSV-1 (strain) F
  MIC50: 15 to 30 µg/mL
[6]; Table 4, HSV-1 TK^- B2006, PRK cells
  MIC50: 7 µg/mL
Measles
  MIC50: > 400 µg/mL
Reovirus
  MIC50: > 400 µg/mL
[3]
  MIC50: 7 to 20 µg/mL
HSV-2 (strain) Lyons
  MIC50: 7 to 15 µg/mL
[4]; 1 h, 100 μg/ml
  Titer of HSV-1: < 1.3 log10 PFU/ml
[4]; 24 h, 100 μg/ml
  Titer of HSV-1: 3.3 log10 PFU/ml
[4]; 48 h, 100 μg/ml
  Titer of HSV-1: 4.0 log10 PFU/ml
[4]; 72 h, 100 μg/ml
  Titer of HSV-1: 3.9 log10 PFU/ml
Parainfluenza 3
  MIC50: > 200 µg/mL
